System: MDRPA
Test: Checkerboard assay (combined-use MIC, FIC)
Assay type: cell-based, Pseudomonas aeruginosa
Conditions: for FIC, all strains / MIC50 of the antibiotic after combined use / MIC90 of the antibiotic after combined use / reduction of the antibiotic's MIC50 vs single use / reduction of the antibiotic's MIC90 vs single use / share of strains with FIC ≤ 0.5: 20 MDRPAs
Method: Test methods of the sensibilization effects of the test product to similar antibiotics: it is operated by referring to a checkerboard assay recommended by NCCLS.
The checkerboard assay is performed in a 96-pore sterile culture plate.
Calculation of a Fractional Inhibitory Concentration (FIC): FIC=S20b combined-use MIC/S20b single-use MIC+antibiotic combined-use MIC/antibiotic single-use MIC. By calculating the FIC, the combined antibacterial interaction between the EA and the antibiotic is evaluated, with synergistic effect for FIC≤0.5, additive effect for 0.5<FIC≤1, indifferent effect for 1<FIC≤2 and antagonistic effect for FIC>2. According to a sterile growth pore, the optimum concentration ratio between the EA and the antibiotic is founded out. At last, the effect of the EA to strengthen the efficacy of the antibiotic is evaluated.

[1] = antibiotic with 10% ethanol extract
[2] = antibiotic with 60% ethanol extract
[3] = antibiotic with 95% ethanol extract
[4] = antibiotic with EA (water extract)

## C[C@@H](O)[C@H]1C(=O)N2C(C(=O)O)=C(SCCN=CN)C[C@H]12 [IMP, imipenem]
[1]
  FIC, all strains: ≤ 2
  MIC50 of the antibiotic after combined use: 2 µg/mL
  MIC90 of the antibiotic after combined use: 16 µg/mL
  reduction of the antibiotic's MIC50 vs single use: 93.75%
  reduction of the antibiotic's MIC90 vs single use: 75%
  share of strains with FIC ≤ 0.5: 50%
[2]
  FIC, all strains: ≤ 2
  MIC50 of the antibiotic after combined use: 2 µg/mL
  MIC90 of the antibiotic after combined use: 16 µg/mL
  reduction of the antibiotic's MIC50 vs single use: 93.75%
  reduction of the antibiotic's MIC90 vs single use: 75%
  share of strains with FIC ≤ 0.5: 15%
[3]
  FIC, all strains: ≤ 2
  MIC50 of the antibiotic after combined use: 4 µg/mL
  MIC90 of the antibiotic after combined use: 16 µg/mL
  reduction of the antibiotic's MIC50 vs single use: 75%
  reduction of the antibiotic's MIC90 vs single use: 75%
  share of strains with FIC ≤ 0.5: 40%
[4]
  FIC, all strains: ≤ 2
  MIC50 of the antibiotic after combined use: 2 µg/mL
  MIC90 of the antibiotic after combined use: 16 µg/mL
  reduction of the antibiotic's MIC50 vs single use: 93.75%
  reduction of the antibiotic's MIC90 vs single use: 75%
  share of strains with FIC ≤ 0.5: 40%
Strain P1, EA (P. clypearia water extract) combined with IMP
  combined-use MIC: 16 µg/mL
Strain P2, EA (P. clypearia water extract) combined with IMP
  combined-use MIC: 2 µg/mL
Strain P3, EA (P. clypearia water extract) combined with IMP
  combined-use MIC: 2 µg/mL
Strain P4, EA (P. clypearia water extract) combined with IMP
  combined-use MIC: 2 µg/mL
Strain P5, EA (P. clypearia water extract) combined with IMP
  combined-use MIC: 16 µg/mL
Strain P6, EA (P. clypearia water extract) combined with IMP
  combined-use MIC: 2 µg/mL
Strain P7, EA (P. clypearia water extract) combined with IMP
  combined-use MIC: 2 µg/mL
Strain P8, EA (P. clypearia water extract) combined with IMP
  combined-use MIC: 2 µg/mL
Strain P9, EA (P. clypearia water extract) combined with IMP
  combined-use MIC: 16 µg/mL
Strain P10, EA (P. clypearia water extract) combined with IMP
  combined-use MIC: 16 µg/mL
Strain P11, EA (P. clypearia water extract) combined with IMP
  combined-use MIC: 4 µg/mL
Strain P12, EA (P. clypearia water extract) combined with IMP
  combined-use MIC: 2 µg/mL
Strain P13, EA (P. clypearia water extract) combined with IMP
  combined-use MIC: 2 µg/mL
Strain P14, EA (P. clypearia water extract) combined with IMP
  combined-use MIC: 4 µg/mL
Strain P15, EA (P. clypearia water extract) combined with IMP
  combined-use MIC: 8 µg/mL
Strain P16, EA (P. clypearia water extract) combined with IMP
  combined-use MIC: 2 µg/mL
Strain P17, EA (P. clypearia water extract) combined with IMP
  combined-use MIC: 4 µg/mL
Strain P18, EA (P. clypearia water extract) combined with IMP
  combined-use MIC: 4 µg/mL
Strain P19, EA (P. clypearia water extract) combined with IMP
  combined-use MIC: 4 µg/mL
Strain P20, EA (P. clypearia water extract) combined with IMP
  combined-use MIC: 2 µg/mL

## C[C@H]1COc2c(N3CCN(C)CC3)c(F)cc3c(=O)c(C(=O)O)cn1c23 [LVX, Levofloxacin]
[1]
  FIC, all strains: ≤ 2
  MIC50 of the antibiotic after combined use: 1 µg/mL
  MIC90 of the antibiotic after combined use: 4 µg/mL
  reduction of the antibiotic's MIC50 vs single use: 75%
  reduction of the antibiotic's MIC90 vs single use: 87.5%
  share of strains with FIC ≤ 0.5: 15%
[2]
  MIC50 of the antibiotic after combined use: 1 µg/mL
  MIC90 of the antibiotic after combined use: 8 µg/mL
  reduction of the antibiotic's MIC50 vs single use: 75%
  reduction of the antibiotic's MIC90 vs single use: 75%
  share of strains with FIC ≤ 0.5: 10%
[3]
  FIC, all strains: ≤ 2
  MIC50 of the antibiotic after combined use: 1 µg/mL
  MIC90 of the antibiotic after combined use: 4 µg/mL
  reduction of the antibiotic's MIC50 vs single use: 75%
  reduction of the antibiotic's MIC90 vs single use: 87.5%
  share of strains with FIC ≤ 0.5: 10%
[4]
  FIC, all strains: ≤ 2
  MIC50 of the antibiotic after combined use: 1 µg/mL
  MIC90 of the antibiotic after combined use: 8 µg/mL
  reduction of the antibiotic's MIC50 vs single use: 75%
  reduction of the antibiotic's MIC90 vs single use: 75%
  share of strains with FIC ≤ 0.5: 15%
Strain P1, EA (P. clypearia water extract) combined with LVX
  combined-use MIC: 4 µg/mL
Strain P2, EA (P. clypearia water extract) combined with LVX
  combined-use MIC: 0.03125 µg/mL
Strain P3, EA (P. clypearia water extract) combined with LVX
  combined-use MIC: 0.03125 µg/mL
Strain P4, EA (P. clypearia water extract) combined with LVX
  combined-use MIC: 4 µg/mL
Strain P5, EA (P. clypearia water extract) combined with LVX
  combined-use MIC: 0.03125 µg/mL
Strain P6, EA (P. clypearia water extract) combined with LVX
  combined-use MIC: 0.03125 µg/mL
Strain P7, EA (P. clypearia water extract) combined with LVX
  combined-use MIC: 0.03125 µg/mL
Strain P8, EA (P. clypearia water extract) combined with LVX
  combined-use MIC: 0.03125 µg/mL
Strain P9, EA (P. clypearia water extract) combined with LVX
  combined-use MIC: 2 µg/mL
Strain P10, EA (P. clypearia water extract) combined with LVX
  combined-use MIC: 32 µg/mL
Strain P11, EA (P. clypearia water extract) combined with LVX
  combined-use MIC: 1 µg/mL
Strain P12, EA (P. clypearia water extract) combined with LVX
  combined-use MIC: 0.5 µg/mL
Strain P13, EA (P. clypearia water extract) combined with LVX
  combined-use MIC: 1 µg/mL
Strain P14, EA (P. clypearia water extract) combined with LVX
  combined-use MIC: 1 µg/mL
Strain P15, EA (P. clypearia water extract) combined with LVX
  combined-use MIC: 1 µg/mL
Strain P16, EA (P. clypearia water extract) combined with LVX
  combined-use MIC: 2 µg/mL
Strain P17, EA (P. clypearia water extract) combined with LVX
  combined-use MIC: 4 µg/mL
Strain P18, EA (P. clypearia water extract) combined with LVX
  combined-use MIC: 8 µg/mL
Strain P19, EA (P. clypearia water extract) combined with LVX
  combined-use MIC: 4 µg/mL
Strain P20, EA (P. clypearia water extract) combined with LVX
  combined-use MIC: 1 µg/mL

— patent US11793849B2, “Method of Chinese herbal medicine extract used for treating multiple diseases caused by drug resistant bacteria infection” (priority 2016, dated 2023)
